From patent publication US6423695B1, “Cytokine related treatments of disease” (Ribapharm, Inc., priority 1998, dated 2002)
“Also recorded” adds a separate entry of the source.

What was measured:
[1] = test system: Th1 and Th2 responses; assay: Modulation of Th1 and Th2 responses at administered dose; assay type: in vivo
Source text: The effects of 2-β-D-ribofuranosylthiazole-4-carboxamide (Tiazofurin), a synthetic C-nucleoside analogue, on GTP levels supports this view. Tumor cells are characterized by high levels of inosine monophosphate dehydrogenase (IMP DH) activity, and it is known that IMP DH is the rate-limiting enzyme of GTP biosynthesis. Weber, G., IMP Dehydrogenase and GTP as Targets in Human Leukemia Treatment. Adv. Exp. Med. Biol. 309B:287-292 (1991). […] Weber, G., Critical Issues in Chemotherapy with Tiazofurin, Adv. Enzyme Regul. 29:75-95 (1989). Typical initial doses of Tiazofurin are about 4,400 mg/m^2, with consolidation doses of about 1100 to 3300 mg/m^2. […] In one aspect of the present invention it is contemplated that much smaller doses of Tiazofurin, in the range of 1/10th to one-half that set forth above, would be sufficient to specifically suppress either a Th1 response or a Th2 response without greatly reducing the other response.
The effects of 1β-D-ribofuranosyl-1,2,4-triazole-3-carboxamide (Ribavirin) also supports the present theory. […] Yamada, Y. et al., Action of the Active Metabolites of Tiazofurin and Ribavirin on Purified IMP Dehydrogenase, Biochem. 27:2193-2196 (1988). Ribavirin proceeds under a different mechanism than Tiazofurin in inhibiting IMP DH, however, acting on a different site on the enzyme molecule. Ribavirin is converted to its active metabolite, ribavirin-monophosphate (RMP), which inhibits the enzyme at the IMP-XMP site of IMP DH. As with Tiazofurin, the affinity of Ribavirin's active form to the enzyme is higher than that of the natural metabolite.
In another aspect of the invention, an abnormality reflected in increased response in one group of cytokines is treated by administering a nucleoside or other compound that increases response in another group of cytokines. Thus, for example, a common rapid onset type of allergy results in an abnormally elevated Th2 response.
It is also contemplated that an abnormality reflected in increased response in one group of cytokines can be treated by administering a nucleoside that increases response in another group of cytokines.

[2] = test system: inosine monophosphate dehydrogenase (IMP DH); settings: cited from earlier work
[3] = test system: tumors; settings: in vivo; cited from earlier work
[4] = test system: guanine nucleotide pools; settings: cited from earlier work
[5] = approximately 600 to 1000 mg/day

| SMILES | Th1 response [1, 5] | Th2 response [1, 5] | Th1 response ([1]; low dosages of about 500 mg/day to about 1,000 mg/day) | Th1 and Th2 responses ([1]; relatively high doses, approximately 2200 mg/m^2 or about 1200-1500 mg/day for an adult) | IMP DH activity [2] | tumor remission [3] | guanine nucleotide pools [4] | Th1 and Th2 responses ([1]; Tiazofurin initial doses about 4,400 mg/m^2, consolidation doses about 1100 to 3300 mg/m^2) |
| --- | --- | --- | --- | --- | --- | --- | --- | --- |
| NC(=O)c1ncn([C@@H]2O[C@H](CO)[C@@H](O)[C@H]2O)n1 [Ribavirin, 1β-D-ribofuranosyl-1,2,4-triazole-3-carboxamide] | promotes a Th1 response; also recorded: Th1 response is induced | suppresses a Th2 response; also recorded: Th2 response is suppressed | increases Th1 response | both Th1 and Th2 responses are inhibited | inhibit IMP DH |  |  |  |
| NC(=O)c1csc([C@@H]2O[C@H](CO)[C@@H](O)[C@H]2O)n1 [Tiazofurin, 2-β-D-ribofuranosylthiazole-4-carboxamide] |  |  |  |  | selectively block IMP DH activity | forces various tumors into remission | deplete guanine nucleotide pools | greatly reduced |
